This note sets out measurements from ChEMBL document CHEMBL1127323, “Isosteric phosphonate analogs of ET-16-OMe. Synthesis and biological evaluation of the enantiomers of 2'-(trimethylammonio)ethyl 4-(hexadecyloxy)-3-methoxybutanephosphonate and 2'-(trimethylammonio)ethyl 4-(hexadecylthio)-3-methoxybutanephosphonate” (J Med Chem, 1994).

The term IC50 denotes the concentration at which inhibition is half-maximal. A high value points to lower potency.

For one assay, the species on record is Mus musculus. Put plainly: Inhibitory activity against murine leukemia. The format is functional, organism-based.
In a further assay the test system is L1210. Put plainly: Inhibitory activity against L1210 growth using clonogenic assay. The format is functional, cell-based. Conditions: Mus musculus.
In the next assay the test system is P388. Put plainly: Inhibitory activity against adriamycin-sensitive and resistant cells in P388 and P388-ADR cells. The format is functional, cell-based. Conditions: Mus musculus.

For `CCCCCCCCCCCCCCCCSC[C@H](CCP(=O)([O-])OCC[N+](C)(C)C)OC`, the IC50 in the assay listed under Mus musculus turned out to be 1000 nM.
For the compound `CCCCCCCCCCCCCCCCOC[C@H](CCP(=O)([O-])OCC[N+](C)(C)C)OC`, the IC50 came out at 2500 nM with L1210, 1000 nM in the assay listed under Mus musculus and 2500 nM with P388.
